Results on 37 molecules are retold here after US20220324865A1 (Bayer Aktiengesellschaft, priority 2018, published 2022).

As a reminder, the pIC50 is the negative decadic logarithm of the IC50, by convention in mol/L.

SMILES strings stand for the structures. pIC50: −log10 of the molar value.

The test has as its target T1, human EP3 receptor (Homo sapiens, UniProt P43115).
T1 construct: expressed in transfected cells; host or cells: CHO K1 (Chinese Hamster Ovary), stably co-transfected with Galpha16 and mitochondrial clytin
T1 sequence (P43115 1-390): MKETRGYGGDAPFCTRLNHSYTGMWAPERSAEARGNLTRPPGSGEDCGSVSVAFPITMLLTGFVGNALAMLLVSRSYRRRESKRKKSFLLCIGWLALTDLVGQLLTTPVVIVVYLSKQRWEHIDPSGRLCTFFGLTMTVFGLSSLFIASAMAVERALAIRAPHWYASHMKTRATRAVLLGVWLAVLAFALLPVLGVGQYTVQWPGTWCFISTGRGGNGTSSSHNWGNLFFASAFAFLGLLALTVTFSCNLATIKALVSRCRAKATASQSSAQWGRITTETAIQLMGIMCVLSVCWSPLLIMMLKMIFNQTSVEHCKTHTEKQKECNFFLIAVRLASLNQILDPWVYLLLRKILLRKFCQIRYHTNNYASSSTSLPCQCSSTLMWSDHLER
Kind of test: Cellular in vitro assay for determining EP3 receptor activity (human EP3 cell line, sulprostone-stimulated calcium luminescence). Format: cell-based. The settings on record: CHO cells expressing human EP3 and mitochondrial Clytin; antagonist mode, sulprostone at EC50; read-out: EP3 CHO mtCLY ANTAG IC50. The procedure, abridged:
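CHO K1 cells stably expressing human EP3 with Gα16 and mitochondrial Clytin, loaded overnight with coelenterazine. Compounds added 10 min before sulprostone at its EC50; antagonism read immediately as reduced calcium-driven luminescence, quadruplicate points.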
Regarding `CC(C)(O)[C@@H](NC(=O)c1nn2cc(-c3cccc(Cl)c3)[nH]c(=O)c2c1C1CC1)c1ccc(F)cc1` [6-677], the pIC50 is 9.35. In the case of `Cc1cccc2ncc(-c3cn4nc(C(=O)N[C@H](CCO)c5ccc(F)cc5)c(C(C)C)c4c(=O)[nH]3)cc12` [Example 1-56, N-[(1R)-1-(4-Fluorophenyl)-3-hydroxypropyl]-6-(5-methylquinolin-3-yl)-4-oxo-3-(propan-2-yl)-4,5-dihydropyrazolo[1,5-a]pyrazine-2-carboxamide], the negative-log IC50 (pIC50) is 9.01. On to `COc1cc(-c2cn3nc(C(=O)N[C@H](CCO)c4ccc(F)cc4)c(C4CC4)c3c(=O)[nH]2)ccc1Cl` [6-482], for which the negative logarithm of the IC50 (pIC50) is 9.32. Take `O=C(NCCc1ccccc1)c1cc2c(=O)[nH]c(-c3ccc4c(c3)OCCO4)cn2n1` [6-21]: the pIC50 is 8.27. In the case of `Cc1ccc(-c2cn3nc(C(=O)N[C@@H](c4ccc(F)cc4)C(C)(C)O)c(C4CC(F)(F)C4)c3c(=O)[nH]2)cc1Cl` [6-559], the pIC50 was 8.22. `Cc1ccc(-c2cn3nc(C(=O)NC4(c5ccc(F)cc5)CN(C)C4)c(C)c3c(=O)[nH]2)cc1Cl` [Example 1-150, 6-(3-Chloro-4-methylphenyl)-N-[3-(4-fluorophenyl)-1-methylazetidin-3-yl]-3-methyl-4-oxo-4,5-dihydropyrazolo[1,5-a]pyrazine-2-carboxamide]: the pIC50 is 8.14.

`O=C(N[C@H](CCO)c1ccc(F)cc1)c1cc2c(=O)[nH]c(-c3ccc4c(c3)CCCC4)cn2n1` [Example 1-100, N-[(1R)-1-(4-Fluorophenyl)-3-hydroxypropyl]-4-oxo-6-(5,6,7,8-tetrahydronaphthalen-2-yl)-4,5-dihydropyrazolo[1,5-a]pyrazine-2-carboxamide]: the pIC50 is 9.02. Turning to `O=C(N[C@@H](c1ccc(F)cc1)C(F)(F)CO)c1nn2cc(-c3ccc(Cl)c(F)c3)[nH]c(=O)c2c1C1CC1` [6-95], the pIC50 was 8.76. For `CC(C)(O)[C@@H](NC(=O)c1nn2cc(-c3ccc(Cl)c(OC(F)(F)F)c3)[nH]c(=O)c2c1C1CC1)c1ccc(F)cc1` [6-592], the pIC50 is 8.73. In the case of `Cc1ccc(-c2cn3nc(C(=O)NC(CCn4cncn4)c4ccccc4)cc3c(=O)[nH]2)cc1C` (racemic) [Example 1-12, rac-6-(3,4-Dimethylphenyl)-4-oxo-N-[1-phenyl-3-(1,2,4-triazol-1-yl)propyl]-5H-pyrazolo[1,5-a]-pyrazine-2-carboxamide], the pIC50 is 8.78. As to `Cc1ccc(-c2cn3nc(C(=O)N[C@@H](c4ccc(F)cc4)C(C)(C)O)c(C(F)(F)C(F)(F)F)c3c(=O)[nH]2)cc1Cl` [6-488], the pIC50 was 9.24. Turning to `COc1ccc(C(C)NC(=O)c2cc3c(=O)[nH]c(-c4ccc5ccccc5c4)cn3n2)cn1` (stereo not shown) [Example 1-104, N-[1-(6-Methompyridin-3-yl)ethyl]-6-(2-naphthyl)-4-oxo-5H-pyrazolo[1,5-a]pyrazine-2-carboxamide], the negative-log IC50 (pIC50) is 8.65. For the molecule `Cc1cccc2ncc(-c3cn4nc(C(=O)NC(c5ccccc5)C(F)F)c(C(C)C)c4c(=O)[nH]3)cc12` (stereo not shown) [Example 4-68, N-(2,2-Difluoro-1-phenylethyl)-3-isopropyl-6-(5-methyl-3-quinolyl)-4-oxo-5H-pyrazolo[1,5-a]pyrazine-2-carboxamide], the pIC50 was 8.52. In the case of `CCn1cc(CNC(=O)c2nn3cc(-c4cnc5cccc(C)c5c4)[nH]c(=O)c3c2C(C)C)c(C)n1` [Example 4-36, N-[(1-Ethyl-3-methyl-1H-pyrazol-4-yl)methyl]-6-(5-methylquinolin-3-yl)-4-oxo-3-(propan-2-yl)-4,5-dihydropyrazolo[1,5-a]pyrazine-2-carboxamide] it was 9.11. Consider `Cc1ccc(-c2cn3nc(C(=O)N[C@@H](c4ccc(F)cc4)C(F)(F)CO)c(C)c3c(=O)[nH]2)cc1F` [6-412], for which the pIC50 was 8.84. As for `O=C(N[C@@H](c1ccc(F)cc1)C(F)(F)CO)c1nn2cc(-c3ccc(Cl)c(Cl)c3)[nH]c(=O)c2c1C1CCC1` [6-567], the pIC50 is 8.60. In the case of `N#Cc1c(C(=O)NC(CO)c2cc(Cl)cc(Cl)c2)nn2cc(-c3ccc4ccccc4c3)[nH]c(=O)c12` (stereo not shown) [Example 3-76, 3-Cyano-N-[1-(3,5-dichlorophenyl)-2-hydroxyethyl]-6-(2-naphthyl)-4-oxo-5H-pyrazolo[1,5-a]pyrazine-2-carboxamide] it was 8.36; in that of `Cc1cc(-c2cn3nc(C(=O)N[C@@H](c4ccc(F)cc4)C(C)(C)O)c(C4CC4)c3c(=O)[nH]2)ccc1Cl` [Example 1-173, 6-(4-Chloro-3-methylphenyl)-3-cyclopropyl-N-[(1S)-1-(4-fluorophenyl)-2-hydroxy-2-methylpropyl]-4-oxo-4,5-dihydropyrazolo[1,5-a]pyrazine-2-carboxamide], 9.14.

Turning to `Cc1ccc(-c2cn3nc(C(=O)NC(CNC(=O)OC(C)(C)C)c4ccc(F)cc4)cc3c(=O)[nH]2)cc1C` (stereo not shown) [6-42], the pIC50 was 8.31. With `Cc1ccc(-c2cn3nc(C(=O)N[C@@H](C)CO)c(C4CCC4)c3c(=O)[nH]2)cc1C` [6-578], the pIC50 is 8.64. Regarding `Cc1ccc(-c2cn3nc(C(=O)N[C@@H](c4ccc(F)cc4)C(F)(F)CO)c(C)c3c(=O)[nH]2)c(F)c1F` [6-413], the pIC50 is 8.46. Take `COCc1c(C(=O)N[C@@H](c2ccc(F)cc2)C(C)(C)O)nn2cc(-c3ccc(Cl)c(F)c3)[nH]c(=O)c12` [6-625]: the pIC50 is 8.00. As to `Cc1c(C(=O)Nc2ccnn2C(C)C)nn2c(C)c(-c3ccc4ccccc4c3)[nH]c(=O)c12` [Example 3-6, 3,7-Dimethyl-6-(naphthalen-2-yl)-4-oxo-N-[1-(propan-2-yl)-1H-pyrazol-5-yl]-4,5-dihydropyrazolo[1,5-a]pyrazine-2-carboxamide], the pIC50 is 8.32.

`Cc1ccc(-c2cn3nc(C(=O)NCC(O)C(F)(F)F)c(C4CC4)c3c(=O)[nH]2)cc1F` (single isomer, unassigned; enantiomer1) [Example 1-160, 3-Cyclopropyl-6-(3-fluoro-4-methylphenyl)-4-oxo-N-(3,3,3-trifluoro-2-hydroxpropyl)-4,5-dihydropyrazolo[1,5-a]pyrazine-2-carboxamide (enantiomer1)]: the pIC50 is 8.45. For the molecule `Cc1ccc(-c2cn3nc(C(=O)N[C@H](C)C(C)C)c(C4CC4)c3c(=O)[nH]2)cc1Cl` [6-274], the pIC50 was 8.89. As to `O=C(NCc1cc(F)ccc1F)c1cc2c(=O)[nH]c(-c3ccc4ccccc4c3)cn2n1` [Example 2-53, N-(2,5-Difluorobenzyl)-6-(2-naphthyl)-4-oxo-4,5-dihydropyrazolo[1,5-a]pyrazine-2-carboxamide], the pIC50 is 8.43. Consider `Cc1cc(-c2cn3nc(C(=O)N[C@@H](C)C(C)C)c(C4CC4)c3c(=O)[nH]2)ccc1Cl` [6-302], for which the pIC50 is 8.53.

For `Cc1ccc(-c2cn3nc(C(=O)N[C@@H](c4ccc(F)cc4)C(C)(C)O)c(C4CC4)c3c(=O)[nH]2)c(F)c1F` [6-596], the pIC50 is 8.55. Take `CCN(CCO)CC(NC(=O)c1nn2cc(-c3ccc4ccccc4c3)[nH]c(=O)c2c1C1CC1)c1ccccc1` (stereo not shown) [Example 1-26, 3-Cyclopropyl-N-[2-[ethyl(2-hydroxyethyl)amino]-1-phenylethyl]-6-(2-naphthyl)-4-oxo-5H-pyrazolo[1,5-a]pyrazine-2-carboxamide]: the pIC50 was 8.85. On to `Cc1ccc(-c2cn3nc(C(=O)NCC(C)(N)C(F)(F)F)c(C(F)(F)F)c3c(=O)[nH]2)cc1Cl` (single isomer, unassigned) [6-171], for which the pIC50 is 8.64. `Cc1cc(-c2cn3nc(C(=O)N[C@H](CN4CC(F)C4)c4ccc(F)cc4)c(C(F)(F)F)c3c(=O)[nH]2)ccc1Cl` [6-231]: the pIC50 was 8.49.

For `COc1ccccc1C(C)NC(=O)c1cc2c(=O)[nH]c(-c3ccc4ccccc4c3)cn2n1` (stereo not shown) [Example 2-8, N-[1-(2-Methoxyphenyl)ethyl]-6-(2-naphthyl)-4-oxo-4,5-dihydropyrazolo[1,5-a]pyrazine-2-carboxamide], the pIC50 is 8.92. As for `CCn1cc(Cl)c(CNC(=O)c2nn3cc(-c4cnc5cccc(C)c5c4)[nH]c(=O)c3c2C(C)C)n1` [Example 4-23, N-[(4-Chloro-1-ethyl-1H-pyrazol-3-yl)methyl]-6-(5-methylquinolin-3-yl)-4-oxo-3-(propan-2-yl)-4,5-dihydropyrazolo[1,5-a]pyrazine-2-carboxamide], the pIC50 is 9.00. In the case of `Cc1c(C(=O)N[C@H]2CCc3ccccc32)nn2c(C)c(-c3ccc4ccccc4c3)[nH]c(=O)c12` [Example 3-29, N-[(7S)-2,3-Dihydro-1H-inden-1-yl]-3,7-dimethyl-6-(naphthalen-2-yl)-4-oxo-4,5-dihydropyrazolo[1,5-a]pyrazine-2-carboxamide], the pIC50 was 8.33. The figure for `Cc1ccc(-c2cn3nc(C(=O)N[C@@H](c4ccc(F)cc4)C(C)(C)O)c(C)c3c(=O)[nH]2)nc1C` [6-634] is 8.43. Take `COCc1c(C(=O)N[C@@H](c2ccc(F)cc2)C(F)(F)CO)nn2cc(-c3ccc(Cl)c(F)c3)[nH]c(=O)c12` [6-624]: the negative logarithm of the IC50 (pIC50) is 8.17. `Cc1cc(-c2cn3nc(C(=O)N[C@H](CCO)c4ccc(F)cc4)cc3c(=O)[nH]2)ccc1C(F)(F)F` [Example 1-121, N-[(1R)-1-(4-Fluorophenyl)-3-hydroxpropyl]-6-[3-methyl-4-(trifluoromethyl)phenyl]-4-oxo-4,5-dihydropyrazolo[1,5-a]pyrazine-2-carboxamide]: the pIC50 is 8.38.
